Key:
Assay in all cases: Bliss excess, mean over the matrix (fraction); higher = more synergy
[1] = test system: CAL-148 (Breast Carcinoma)
Procedure, shortened: (§1)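 Cell lines grown in DMEM/F12 or RPMI with 10% FBS were plated in 1536-well plates and held 24 hours at 37°C, 5% CO2 before 72 hours of exposure to two-drug dose matrices, with DMSO typically at 0.2%. CellTiter-Glo 2.0 luminescence gave viability, which was converted to inhibition. Vehicle wells were set to 0 and blank wells to 1. Combination Emax is the second-highest inhibition in the matrix, and Bliss excess is the observed combination effect minus the expected EA + EB − EA·EB, where EA and EB are the single-agent effects.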

[2] = test system: CCRF-CEM (T-Lymphoblastic Leukemia)
Procedure, shortened: as §1

[3] = test system: CaR-1 (Colorectal Carcinoma)
Procedure, shortened: as §1

[4] = test system: Calu-3 (Lung Adenocarcinoma)
Procedure, shortened: as §1

[5] = test system: DoTc2-4510 (Cervical Carcinoma)
Procedure, shortened: as §1

[6] = test system: HCC-78 (Lung Adenocarcinoma)
Procedure, shortened: as §1

[7] = test system: HO-1-N-1 (Oral Cavity Carcinoma)
Procedure, shortened: as §1

[8] = test system: HT-1376 (Bladder Carcinoma)
Procedure, shortened: as §1

[9] = test system: Hs-578-T (Breast Carcinoma)
Procedure, shortened: as §1

KELLY (Neuroblastoma) = test system: KELLY (Neuroblastoma)
Procedure, shortened: as §1

[10] = test system: KURAMOCHI (Ovarian Carcinoma)
Procedure, shortened: as §1

[11] = test system: LB831-BLC (Bladder Carcinoma)
Procedure, shortened: as §1

[12] = test system: LS-180 (Colorectal Carcinoma)
Procedure, shortened: as §1

[13] = test system: ME-1 (Acute Myeloid Leukemia)
Procedure, shortened: as §1

NB10 (Neuroblastoma) = test system: NB10 (Neuroblastoma)
Procedure, shortened: as §1

[14] = test system: Ramos-2G6-4C10 (Burkitt's Lymphoma)
Procedure, shortened: as §1

T98G (Glioblastoma) = test system: T98G (Glioblastoma)
Procedure, shortened: as §1

[15] = test system: TE-15 (Esophageal Squamous Cell Carcinoma)
Procedure, shortened: as §1

[16] = test system: TE-9 (Esophageal Squamous Cell Carcinoma)
Procedure, shortened: as §1

[17] = test system: UM-UC-3 (Bladder Carcinoma)
Procedure, shortened: as §1

Row | SMILES | Bliss excess [1] | Bliss excess [2] | Bliss excess [3] | Bliss excess [4] | Bliss excess [5] | Bliss excess [6] | Bliss excess [7] | Bliss excess [8] | Bliss excess [9] | Bliss excess (KELLY (Neuroblastoma)) | Bliss excess [10] | Bliss excess [11] | Bliss excess [12] | Bliss excess [13] | Bliss excess (NB10 (Neuroblastoma)) | Bliss excess [14] | Bliss excess (T98G (Glioblastoma)) | Bliss excess [15] | Bliss excess [16] | Bliss excess [17]
1 | C[C@@H](Nc1cc(F)cc(F)c1)c1cc(C(=O)N(C)C)cc2c(=O)cc(N3CCOCC3)oc12 [AZD8186] + C1CN(CCC1(C(=O)N[C@@H](CCO)C2=CC=C(C=C2)Cl)N)C3=NC=NC4=C3C=CN4 [AZD5363] (first compound max 10 µM, 7x7, partner max 10 µM) | -0.0019 | 0.007 | 0.0054 | 0.0001 | -0.0017 | 0.0408 | 0.0627 | -0.0404 | -0.0815 | -0.0246 | -0.037 | -0.0398 | -0.0425 | -0.052 | -0.0398 | -0.0898 | 0.0381 | 0.0126 | -0.0405 | 0.0454
2 | C[C@@H](Nc1cc(F)cc(F)c1)c1cc(C(=O)N(C)C)cc2c(=O)cc(N3CCOCC3)oc12 [AZD8186] + CC(=O)c1c(C)c2cnc(Nc3ccc(N4CCNCC4)cn3)nc2n(C2CCCC2)c1=O [Palbociclib] (first compound max 10 µM, 7x7, partner max 10 µM) | 0.033 | -0.0167 | -0.0054 | -0.0036 | -0.0639 | 0.0329 | 0.0805 | -0.037 | -0.0091 | 0.0897 | -0.0358 | -0.0414 | 0.0004 | 0.0065 | 0.0425 | -0.0328 | 0.0744 | -0.0044 | -0.0589 | 0.131
3 | C[C@@H](Oc1cc(-c2cnn(C3CCNCC3)c2)cnc1N)c1c(Cl)ccc(F)c1Cl [Crizotinib] + CC1=C(C(=CC=C1)Cl)NC(=O)C2=CN=C(S2)NC3=CC(=NC(=N3)C)N4CCN(CC4)CCO [Dasatinib] (first compound max 10 µM, 7x7, partner max 2 µM) | -0.0351 | -0.0055 | 0.0573 | -0.0158 | 0.0349 | 0.0887 | 0.0921 | -0.0104 | 0.0455 | -0.019 | -0.0038 | 0.0269 | -0.0156 | -0.0061 | -0.0423 | -0.0216 | 0.0943 | -0.0403 | 0.0657 | 0.0577
4 | C[C@@H](Oc1cc(-c2cnn(C3CCNCC3)c2)cnc1N)c1c(Cl)ccc(F)c1Cl [Crizotinib] + Cn1cnc2c(F)c(Nc3ccc(Br)cc3Cl)c(C(=O)NOCCO)cc21 [Selumetinib] (first compound max 10 µM, 7x7, partner max 10 µM) | -0.0173 | -0.0682 | 0.0092 | -0.0507 | -0.0514 | 0.0444 | -0.0087 | -0.0419 | -0.0131 | 0.0644 | -0.0483 | -0.049 | -0.0236 | 0.0624 | -0.0221 | -0.0875 | -0.0578 | -0.021 | -0.0199 | -0.0136
5 | O=C(c1cc(Cc2n[nH]c(=O)c3ccccc23)ccc1F)N1CCN(C(=O)C2CC2)CC1 [Olaparib] + CC1(C)CCC(CN2CCN(c3ccc(C(=O)NS(=O)(=O)c4ccc(NCC5CCOCC5)c([N+](=O)[O-])c4)c(Oc4cnc5[nH]ccc5c4)c3)CC2)=C(c2ccc(Cl)cc2)C1 [Venetoclax] (first compound max 10 µM, 7x7, partner max 1 µM) | -0.0581 | -0.0036 | -0.0509 | -0.0406 | -0.0462 | -0.0181 | 0.048 | -0.0522 | -0.115 | 0.0744 | -0.0482 | -0.0271 | -0.0431 | 0.0436 | -0.0041 | -0.0167 | -0.0269 | -0.0098 | -0.045 | -0.0528
6 | O=C(c1cc(Cc2n[nH]c(=O)c3ccccc23)ccc1F)N1CCN(C(=O)C2CC2)CC1 [Olaparib] + CN(CC[C@H](CSC1=CC=CC=C1)NC2=C(C=C(C=C2)S(=O)(=O)NC(=O)C3=CC=C(C=C3)N4CCC(CC4)[C@H](C5=CC=CC=C5C6=CC=C(C=C6)Cl)O)S(=O)(=O)C(F)(F)F)CCO [AZD4320] (first compound max 10 µM, 7x7, partner max 1 µM) | 0.0335 | 0.0247 | -0.054 | -0.027 | 0.03 | -0.016 | 0.0106 | -0.0572 | -0.0625 | 0.134 | -0.0414 | -0.0076 | -0.0552 | -0.0216 | -0.0471 | -0.0184 | 0.0008 | -0.0494 | -0.003 | 0.0086
7 | O=C(c1cc(Cc2n[nH]c(=O)c3ccccc23)ccc1F)N1CCN(C(=O)C2CC2)CC1 [Olaparib] + COc1nnc2ccc(N3CCC(c4ccc(OCCN5CCN(C)C(=O)[C@H]5C)cc4)CC3)nn12 [AZD5153] (first compound max 10 µM, 7x7, partner max 1 µM) | -0.0366 | 0.0457 | -0.105 | -0.0339 | -0.0755 | -0.0169 | -0.02 | -0.0425 | -0.0551 | -0.042 | -0.0231 | -0.0889 | -0.0495 | 0.0123 | -0.0558 | -0.0473 | -0.0501 | -0.0671 | -0.0663 | -0.0014
8 | O=C(c1cc(Cc2n[nH]c(=O)c3ccccc23)ccc1F)N1CCN(C(=O)C2CC2)CC1 [Olaparib] + Cc1c2c(nn1C)CSCc1cc(n(C)n1)CSc1cc(c3ccccc3c1)OCCCc1c(C(=O)O)n(C)c3c-2c(Cl)ccc13 [AZD5991] (first compound max 10 µM, 7x7, partner max 1 µM) | -0.005 | 0.0053 | -0.0322 | -0.0453 | -0.0397 | -0.0244 | 0.0456 | -0.0392 | -0.0621 | 0.0826 | -0.0546 | -0.0371 | -0.0207 | -0.0085 | -0.0166 | 0.0249 | -0.0277 | -0.0392 | -0.0397 | -0.0182
9 | N#Cc1cnc(Nc2cc(NC[C@H]3CNCCO3)c(C(F)(F)F)cn2)cn1 [SRA737] + C=CCn1c(=O)c2cnc(Nc3ccc(N4CCN(C)CC4)cc3)nc2n1-c1cccc(C(C)(C)O)n1 [AZD1775] (first compound max 10 µM, partner max 1 µM) | 0.184 | 0.0688 | -0.0239 | 0.0228 | 0.074 | 0.0611 | 0.0976 | 0.0357 | 0.0771 | 0.0387 | -0.0194 | -0.0446 | 0.0475 | 0.0456 | 0.105 | 0.119 | 0.0169 | 0.0209 | 0.0457 | 0.0749
10 | N#Cc1cnc(Nc2cc(NC[C@H]3CNCCO3)c(C(F)(F)F)cn2)cn1 [SRA737] + Nc1ccn([C@@H]2O[C@H](CO)[C@@H](O)C2(F)F)c(=O)n1 [Gemcitabine] (first compound max 10 µM, 7x7, partner max 0.3 µM) | 0.0721 | 0.0316 | -0.0167 | 0.0286 | 0.135 | 0.0509 | 0.015 | -0.0059 | 0.0695 | 0.0213 | -0.0079 | 0.0477 | -0.0884 | 0.0803 | 0.0922 | 0.149 | 0.0323 | 0.0703 | 0.0126 | 0.0629
11 | N#Cc1cnc(Nc2cc(NC[C@H]3CNCCO3)c(C(F)(F)F)cn2)cn1 [SRA737] + O=c1[nH]cc(F)c(=O)[nH]1 [5-Fluorouracil] (first compound max 10 µM, 7x7, partner max 20 µM) | 0.0099 | 0.0179 | -0.0495 | -0.0137 | -0.0201 | 0.0929 | 0.0623 | -0.0591 | 0.0056 | 0.0153 | -0.0351 | 0.0113 | -0.053 | -0.0532 | -0.0036 | -0.0068 | -0.0277 | -0.0033 | 0.0599 | -0.0007
12 | Cc1nc(-c2cn3c(n2)-c2ccc(-c4cnn(C(C)(C)C(N)=O)c4)cc2OCC3)n(C(C)C)n1 [Taselisib] + O=C(Nc1ccc2[nH]nc(-c3ccncc3)c2c1)[C@@H]1CCN(CC(=O)N2CCN(c3ccc(-c4ncccn4)cc3)CC2)C1 [SCH772984] (first compound max 10 µM, 7x7, partner max 5 µM) | 0.103 | 0.124 | 0.0708 | -0.0287 | 0.0435 | 0.0886 | 0.0562 | -0.0046 | 0.0748 | 0.135 | 0.0721 | -0.0305 | 0.0776 | 0.0001 | 0.0751 | 0.008 | 0.0838 | -0.0011 | 0.0303 | 0.0679
13 | CC1(C)CCC(CN2CCN(c3ccc(C(=O)NS(=O)(=O)c4ccc(NCC5CCOCC5)c([N+](=O)[O-])c4)c(Oc4cnc5[nH]ccc5c4)c3)CC2)=C(c2ccc(Cl)cc2)C1 [Venetoclax] + CS(=O)(=O)CCNCc1ccc(-c2ccc3ncnc(Nc4ccc(OCc5cccc(F)c5)c(Cl)c4)c3c2)o1 [Lapatinib] (first compound max 1 µM, 7x7, partner max 10 µM) | -0.0237 | 0.0013 | -0.0553 | -0.0529 | -0.0509 | -0.0248 | -0.0212 | -0.0404 | -0.0054 | 0.0417 | -0.0415 | -0.0597 | -0.0428 | 0.0267 | -0.0238 | 0.0377 | -0.0049 | -0.0478 | -0.0254 | -0.0207
